Measurements reported in patent publication US10391086B2, “Use of EP4 receptor antagonists in the treatment of cartilage disease” (AskAt Inc., priority 2013, dated 2019).

System: bovine full-depth cartilage explants
Test: Ex vivo bovine cartilage explant model
Format: cell-based
Conditions: serum-free culture, biomarkers (P2NP, C2M, AGNx1, AGNx2) in supernatant at day 7, 14 and 21, FIG. 1 (C2M) and FIG. 2 (AGNx2), oncostatin M + TNF-alpha
Procedure: The method of this assay is descrived in the following literature (Rheumatol Int. 2013 February; 33(2):401-11).
Full-depth cartilage explants were harvested from the knee of either back legs of a cow less than 24 month old. All the FDC explants are divided into different treatment group according to the explants weight and metabolic activity (viability) measured by Alamar Blue. Compounds were freshly added to the explants at each media change. The explants were cultured in serum-free conditions. Supernatants retrieved from the culture were analyzed by biomarkers (P2NP, C2M, AGNx1, AGNx2) at day 7, 14 and 21.

| SMILES | inhibition of cartilage destruction |
| --- | --- |
| CCc1nc2c(C)nc(C)cc2n1-c1ccc(CCNC(=O)NS(=O)(=O)c2ccc(C)cc2)cc1 [Compound A, 3-[2-(4-{2-ethyl-4,6-dimethyl-1H-imidazo[4,5-c]pyridin-1-yl}phenyl)ethyl]-1-[(4-methylbenzene)sulfonyl]urea] | dose-dependent inhibition of cartilage destruction |
| C[C@H](NC(=O)c1cc(Cl)cnc1Oc1cccc(F)c1)c1ccc(C(=O)O)cc1 [Compound B, 4-[(1S)-1-({[5-chloro-2-(3-fluorophenoxy)pyridin-3-yl]carbonyl}amino)ethyl]benzoic acid] | dose-dependent inhibition of cartilage destruction |
